What was measured:
[1] = test system: AsPC-1 human pancreatic cancer cells; assay: Thymidine incorporation proliferation assay in AsPC-1 cells; format: cell-based
Excerpt: This can be seen in FIG. 1A (results using myristoleic acid obtained from Sigma Chemicals (St. Louis, Mo.)) and FIG. 1B (results using myristoleic acid obtained from Matreya, Inc. (State College, Pa.)).
(§1) The results are presented in FIG. 2A (cetyl myristoleic acid) and FIG. 2B (palmitoleic acid).
(§2) The thymidine incorporation experiments described in Example 1 were repeated in triplicate on each of two malignant human pancreatic cancer cell lines, AsPC-1 and PANC-1. The results are set forth in FIG. 3A (AsPC-1) and FIG. 3B (PANC-1).

[2] = test system: AsPC-1 human pancreatic cancer cells; assay: Cell morphology during inhibition of proliferation; format: cell-based; conditions: membrane blebbing, cellular rounding, detachment, data not shown
Excerpt: as §1

[3] = test system: AsPC-1 xenografts; assay: Growth of AsPC-1 xenografts in athymic mice; format: in vivo; conditions: 250 mg/kg/day intraperitoneal
Procedure: (§3) The effects of daily intraperitoneal injection of myristoleic acid (250 mg/kg/day) on the growth of AsPC-1 and HPAC xenografts in athymic mice were investigated. Animals were injected daily with myristoleic acid (250 mg/kg/day) (labeled “myristoleic acid” in FIG. 6) or with a control solution (labeled “control” in FIG. 6) once visible tumors were established (about five days after implantation). […] The experiment was repeated twice with AsPC-1 cells and also with HPAC cells. The results set forth in FIG. 6 are representative of these experiments.
(§4) Tumor volumes of the above-described athymic mice were measured as a function of time, and the results are presented in FIG. 7A (AsPC-1 cancer cells) and FIG. 7B (HPAC cancer cells).
(§5) At the end of the experiment, the AsPC-1 and HPAC xenografts were harvested from the athymic mice and the weights of the tumors were measured.

[4] = test system: HPAC xenografts; assay: Growth of HPAC xenografts in athymic mice; format: in vivo; conditions: 250 mg/kg/day intraperitoneal
Procedure: as §3, §4, §5

[5] = test system: AsPC-1 cells; assay: Annexin V binding (early apoptosis); format: cell-based, human; conditions: 10 μg/ml; 3 or 5 hours after beginning treatment
Procedure: The effect of myristoleic acid (10 μg/ml) (“MA”) on annexin V binding in AsPC-1 cells at 3 or 5 hours after beginning treatment is shown in FIG. 4. […] This specific test utilizes the translocation of phophatidyl serine from the inner to outer plasma membrane, which is a feature of early apoptosis. The results set forth in FIG. 4 are representative of three separate experiments.

[6] = test system: PANC-1 human pancreatic cancer cells; assay: Thymidine incorporation proliferation assay in PANC-1 cells; format: cell-based
Excerpt: as §2

[7] = test system: AsPC-1 xenografts; assay: In situ TUNEL assay of harvested xenografts; format: in vivo, athymic mice; conditions: AsPC-1 xenografts harvested at end of experiment; versus vehicle (minimal staining)
Procedure: To determine whether the effects observed in the athymic mouse experiments described in Example 7 might be due to apoptosis, in situ TUNEL assays were carried out on the AsPC-1 xenografts that were harvested from the athymic mice at the end of the experiment. Images of xenograft sections from mice treated with the control solution (vehicle only) (FIGS. 9A and 9B) show minimal staining.

[8] = test system: AsPC-1 cells; assay: TUNEL assay (DNA fragmentation); format: cell-based, human; conditions: 10 μg/ml; 24 hours; versus control
Procedure: The effect of myristoleic acid (10 μg/ml) (“MA”) on terminal deoxynucleotidyl transferase-mediated dUTP nick end labeling (“TUNEL”) assay at 24 hours in AsPC-1 cells was investigated. The results are presented in FIGS. 5A (control) and 5B (10 μg/ml myristoleic acid). […] The results set forth in FIGS. 5A and 5B are representative of three separate experiments.

Row | Compound | inhibition of proliferation as measured by thymidine incorporation ([1]; Example 2) | morphological changes accompanying inhibition of proliferation [2] | tumor size ([3]; daily, AsPC-1 xenografts, throughout the experimental period) | tumor weight ([3]; AsPC-1, at the end of the experiment) | tumor volume ([3]; AsPC-1, throughout the experimental period) | tumor size ([4]; daily, HPAC xenografts, throughout the experimental period) | tumor weight ([4]; HPAC, at the end of the experiment) | tumor volume ([4]; HPAC, throughout the experimental period) | annexin V binding [5] | anti-proliferative activity, concentration range of effects [1] | inhibition of proliferation as measured by thymidine incorporation ([1]; 24 hours, myristoleic acid from two commercial sources (Sigma, Matreya)) | effects on pancreatic cancer cell proliferation (thymidine incorporation) ([1]; repeated in triplicate) | anti-proliferative activity, concentration range of effects [6] | effects on pancreatic cancer cell proliferation (thymidine incorporation) ([6]; repeated in triplicate) | apoptotic cells in xenograft sections (in situ TUNEL) [7] | number of apoptotic cells by TUNEL assay [8]
1 | CCCC/C=C\CCCCCCCC(=O)OCCCCCCCCCCCCCCCC [cetyl myristoleic acid] | concentration-dependent inhibition of proliferation | morphological changes associated with apoptosis | – | – | – | – | – | – | – | – | – | – | – | – | – | –
2 | CCCC/C=C\CCCCCCCC(=O)O [myristoleic acid] | – | morphological changes associated with apoptosis | marked reduction in tumor size | marked reduction | marked reduction | marked reduction in tumor size | marked reduction | marked reduction | Marked membrane fluorescence | low micromolar range | concentration-dependent inhibition of proliferation | concentration-dependent effects | low micromolar range | concentration-dependent effects | many apoptotic cells | marked increase in the number of apoptotic cells
3 | CCCCCC/C=C\CCCCCCCC(=O)O [palmitoleic acid] | concentration-dependent inhibition of proliferation | morphological changes associated with apoptosis | – | – | – | – | – | – | – | – | – | – | – | – | – | –

Source: patent US20040072902A1, “Methods for inducing apoptosis and inhibiting proliferation in cancer cells” (priority 2003, published 2004)
